# pIC50: −log10 of the molar value.
# Target: T1, Signal transducer and activator of transcription 1-alpha/beta (Homo sapiens, UniProt P42224)
# T1 sequence (P42224 whole entry): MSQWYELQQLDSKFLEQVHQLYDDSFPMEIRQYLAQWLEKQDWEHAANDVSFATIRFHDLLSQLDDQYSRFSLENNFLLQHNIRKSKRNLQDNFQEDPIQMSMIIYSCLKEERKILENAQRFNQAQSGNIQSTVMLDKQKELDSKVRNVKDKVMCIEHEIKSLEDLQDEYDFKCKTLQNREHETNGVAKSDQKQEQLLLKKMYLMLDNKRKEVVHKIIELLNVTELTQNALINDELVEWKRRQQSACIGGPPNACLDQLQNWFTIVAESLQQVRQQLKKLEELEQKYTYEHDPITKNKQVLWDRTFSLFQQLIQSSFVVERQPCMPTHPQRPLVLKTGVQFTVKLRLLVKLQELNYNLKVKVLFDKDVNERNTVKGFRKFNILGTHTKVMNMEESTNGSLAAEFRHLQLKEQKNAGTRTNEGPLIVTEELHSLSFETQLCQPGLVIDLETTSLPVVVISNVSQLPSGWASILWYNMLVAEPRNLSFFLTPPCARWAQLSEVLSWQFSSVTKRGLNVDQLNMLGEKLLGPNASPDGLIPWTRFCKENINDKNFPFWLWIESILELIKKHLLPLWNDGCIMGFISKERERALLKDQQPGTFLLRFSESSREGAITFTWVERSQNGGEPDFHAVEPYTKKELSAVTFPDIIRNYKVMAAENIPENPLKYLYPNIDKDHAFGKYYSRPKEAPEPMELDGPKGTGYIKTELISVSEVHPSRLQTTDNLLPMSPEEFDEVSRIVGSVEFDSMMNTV
# Assay: Electrophoretic Mobility Shift Assay (EMSA)
# Details: pH 7.8; 22 °C
# Procedure: STAT proteins were expressed in Sf9 cells from a baculovirus encoding the recombinant protein. A nuclear extract of the Sf9 cells was incubated with 32P-labeled high affinity c-fos sis inducible element (hSIE) either alone or in the presence of inhibitor. After incubation, samples were electrophoresed on polyacrylamide gels. The gels were dried, exposed to a phosphorimager screen and scanned. IC50 values were derived from plots of spot intensity versus phosphopeptide concentration. The affinity of peptides to the SH2 domain is measured by the intensity of the radioactivity of the Stat-DNA complex band in the electrophoresis gel.
structure (smiles),measurement,value
Cc1ccc(S(=O)(=O)OCC(=O)Nc2ccc(C(=O)O)c(O)c2)cc1 [2-hydroxy-4-(2-{[(4-methylbenzene)sulfonyl]oxy}acetamido)benzoic acid],pIC50,< 3.52
